Test system: MelanoDerm in vitro skin model (MEL-300B melanoderms)
Assay: In vitro skin model test (MelanoDerm, MatTek), skin-lightening effect by digital image quantification
Format: cell-based
Conditions: for lightening / pixel density (untreated set at 1.00): 14 days, MEL-300B
Method: The skin-lightening effect was validated on the in vitro skin model, the MelanoDerm™ carried out by MatTek using MEL-300B melanoderms. This model is very similar in structure and function to the natural skin and has the cell types relevant in the epidermis including the melanocytes, which are responsible for the synthesis of the main pigment melanin. Further information can be found, for example, in http://www.mattek.com/pages/in_vitro_basics. The study was carried out over a period of 14 days at two concentrations of 2,3-dimethylnaphthalene-1,4-dione, 10 μM and 60 μM. 1% Kojic acid was the positive standard and untreated as negative control.
Digital image quantification was achieved by subtracting a standard background value from the pixel content of regions of identical size. The pixel content of untreated cells was set at 1.00. Treatment with topical 1% kojic acid as a positive control gave pixel density of 0.96, or 4% lightening. Treatment with 2,3-dimethylnaphthalene-1,4-dione gave pixel density of 0.66 or 34% lightening at a concentration of 10 μM and 0.38 or 62% lightening at a concentration of 60 μM.

[1] = topical 1% kojic acid, positive control

SMILES: O=c1cc(CO)occ1O [kojic acid, Kojic acid, reference compound]
- lightening [1]: 4%
- pixel density (untreated set at 1.00) [1]: 0.96

SMILES: CC1=C(C)C(=O)c2ccccc2C1=O [2,3-dimethylnaphthalene-1,4-dione]
- effectiveness relative to the kojic acid positive standard (concentration of 10 μM vs 1% kojic acid): about ten times as effective
- lightening (concentration of 10 μM): 34%
- pixel density (untreated set at 1.00) (concentration of 10 μM): 0.66
- effectiveness relative to the kojic acid positive standard (concentration of 60 μM vs 1% kojic acid): about fifteen times as effective
- lightening (concentration of 60 μM): 62%
- pixel density (untreated set at 1.00) (concentration of 60 μM): 0.38
